Measured values reported in patent publication US20240043808A1, “Screenable Liver Disease Models and Methods” (INSPHERO AG, priority 2016, published 2024).
Entries after “also recorded” stand apart in the source; their conditions may differ. Where two headings read alike, the source gives them in different places.

Legend:
[1] = system: mono-cultured (HepaRG) and triple/co-cultured (HepaRG THP1/hTERT-HSC) liver MT; assay: Gene expression of fibrotic markers and cytokines in liver MT exposed to LPS, TNF-α and TGF-β1; type: cell-based, human; conditions: for IL-6 gene induction: HepaRG monocultures
Text: Induction of fibrosis biomarkers, Collagen I and IV upon treatment with inflammation-stimuli LPS or TNF-α and pro-fibrotic TGF-β1 signaling molecule. […] Actin was used as reference gene for each sample. ND: no-detected values. *; P≤0.05.
In order to assess the responsiveness towards prototypic inflammatory stimuli and pro-fibrotic stimuli on a gene-expression level, mono-cultured (HepaRG) and triple/co-cultured (HepaRG THP1/hTERT-HSC) liver MT were stimulated with inflammatory inducers (LPS or TNF-α) and the pro-fibrotic cytokine TGF-β1 to assess the cellular responses. Significant differences in the responses of the two types of MT were observed (FIG. 4). […] For example, mRNA of collagen I was only detected in the co-culture system, but not in the monocultures.

[2] = system: triple/co-cultured (HepaRG THP1/hTERT-HSC) liver MT; assay: MTT viability of liver MT stimulated with inflammatory and pro-fibrotic stimuli; type: cell-based, human; conditions: co-cultured microtissues, 14 days of treatment
[3] = system: Human liver microtissues (+Kupffer cells) with stellate cells; assay: Inhibition of fibrosis progression, immunohistochemical staining of collagen I; type: cell-based; conditions: 7 days treatment, stellate cell comprising microtissues, in presence of TGF-β1
Text: FIG. 6: Therapeutic effect of inhibition of pro-fibrotic effector pathways (TGF-βR, TK-R) was confirmed in triple co-culture liver MTs. Human liver MTs prepared form primary human hepatocytes, primary human Kupffer cells and primary human stellate cells where treated with TGF-β1 alone, or in combination with undisclosed inhibitors of i) TGF-β1 receptor, ii) ALK5, and iii) Tyrosine Kinase receptors.
Human liver microtissues (+Kupffer cells) without stellate cells and with either a stellate cell line or primary human stellate cells were treated with a fibrosis inducer (TGF-β1) and in combination with an undisclosed fibrosis inhibitor. […] Even more pronounced is the difference between TGF-β1 treated stellate cell comprising microtissues and TGF-β1/inhibitor treated cultures.

[4] = system: liver endothelial cells (LEC); conditions: 5 days treatment, sub-toxic doses, LEC-coated microtissues
Text: FIG. 7: Assessment of LEC-specific toxicity.
Spheroidal liver microtissues containing hepatocytes and Kupffer cells were coated with liver endothelial cells (LEC) and subjected to 5 days treatment with sub-toxic doses of Acetaminophen (APAP), Cyclophosphamide and Monocrotaline (FIG. 7). After the treatment, microtissues were collected, formalin fixed and paraffin embedded, sliced and stained by immunohistochemistry for the LEC-marker CD31.

liver microtissues [5] = assay: Lipid loading of liver microtissues, nile-red staining of lipid accumulation (steatosis); type: cell-based; conditions: for lipid accumulation in microtissues: increasing concentrations of free fatty acid, nile-red staining
Experimental: FIG. 3A(1): Induction of liver-disease phenotype “steatosis” as determined by lipid accumulation. […] Images are depicted as maximal intensity projections.
FIG. 3A (2): Lipid accumulation in dependency of increasing concentrations of PA, OA or a combination thereof in a molar ratio of 2:1. The total amount of FFA was identical among the groups at a given concentration.
(§1) • Dissolve FFA-free BSA at RT for 1h in H2O for desired stock solution concentration • Dissolve desired amount of OA-Na in 1 mL 0.1 M NaOH-->at 70° C. • Dissolve desired amount of PA-Na 1 mL 0.1 M NaOH-->at 70° • Keep the FFAs on 70° C., while the BSA is placed on 37° C. • Mix FFA with BSA with a magnetic stirrer (for 30 min) • Dilute BSA with 0.1 M NaOH->vehicle control • Cool down to RT, sterile filter, aliquot and freeze. • For a final fatty acid (FA) solution dilute master stock in medium. • Replace medium of liver microtissues with FA-containing medium and incubate 2-7 days.

[6] = system: liver MT triple-culture (hepatocyte+inflammatory cells+stellate cells); assay: Viability of liver MT triple-culture treated with pro-fibrotic compounds; conditions: co-cultured microtissues, exposure over 14 days
[7] = system: liver MT triple-culture (hepatocyte+inflammatory cells+stellate cells); assay: Pro-fibrotic gene expression in liver MT triple-culture treated with pro-fibrotic compounds; conditions: co-cultured microtissues, 14 days
Experimental: MT mRNA was extracted using TRIzol conventional procedure and fold induction were calculated as 2^(−ΔΔCT) for each sample and negative control and expressed as mean fold induction±S.E.M. of three replicates with six MTs each. Actin was used as reference gene for each sample.

liver microtissues [8] = assay: ATP measurement after exposure of liver microtissues to free fatty acids; type: cell-based; conditions: increasing concentrations of FFA for 3-14 days; control BSA
Experimental: FIG. 3A(3): ATP measurements from identical groups after exposure to increasing concentrations of FFA for 3-14 days.
as §1

## TGF-β1: pro-fibrotic cytokine, fibrosis inducer
[1]
  IL-6 gene induction: did not induce
[1]; co-cultures
  IL-6 gene expression: observed in co-cultures
[2]
  cellular viability: decreased viability
[3]
  fibrotic phenotype, collagen I deposition: severe fibrotic phenotype with collagen deposition

## O=P1(N(CCCl)CCCl)NCCCO1 (centres unmarked) [cyclosphosphamide, Cyclophosphamide]
[4]
  LEC-marker CD31 (immunohistochemistry): heavily reduced or completely absent
[4]; listed as Cyclosphosphamide
  LEC-marker CD31 (immunohistochemistry): reduced LEC-presence

## C[C@H]1C(=O)O[C@@H]2CCN3CC=C(COC(=O)[C@](C)(O)[C@]1(C)O)[C@H]23 [monocrotalin, Monocrotaline]
[4]
  LEC-marker CD31 (immunohistochemistry): heavily reduced or completely absent
[4]; listed as Monocrotaline
  LEC-marker CD31 (immunohistochemistry): reduced LEC-presence

## CCCCCCCC/C=C\CCCCCCCC(=O)O [OA, Oleate]
Liver microtissues [5]; FIG. 3A1
  steatosis phenotype (lipid droplets in hepatocytes): small lipid droplets (microvesicular steatosis)

## TNF-α
[1]
  IL-6 gene induction: strongly responsive
[2]
  cellular viability: increased cellular viability

## CC(=N)S [TAA, Thiocetamide]
[6]
  MT viability: Dose-dependent loss of viability or metabolic activity; also recorded: dose-dependent decrease
[7]
  transcriptional induction of collagen I, collagen IV, fibronectin I and CD44: greatly enhanced; also recorded: dose-dependent transcriptional induction

## CCCCCCCCCCCCCCCC(=O)O [PA, palmitic acid]
Liver microtissues [8]
  ATP: decreased values in microtissues exposed to PA4 and higher
Liver microtissues [5]
  steatosis phenotype (lipid droplets in hepatocytes): rather macrovesicular phenotype
  lipid accumulation in microtissues: reduced lipid incorporation at concentrations higher than PA3
Liver microtissues [5]; listed as Palmitate
  lipid accumulation in microtissues: induced lipid accumulation
